# Laboratory results reported in patent US12552772B2, “2-pyrazole anilines and related analogs for inhibiting YAP/TAZ-TEAD” (KATHOLIEKE UNIVERSITEIT LEUVEN, priority 2021, dated 2026).
# System: YAP/TAZ-TEAD transcription
# Assay: Reporter gene assay for measuring the inhibition of YAP/TAZ-TEAD transcription (TEAD-responsive element luciferase reporter in Hek293T cells)
# Type: cell-based
# Conditions: Homo sapiens, HEK-293T, 24 hours incubation
# Procedure, shortened: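 Percent inhibition, scaled between vehicle (0%) and a positive control inhibitor (100%), came from SteadyLite luciferase signal after 24 h compound exposure at 37 °C/5% CO2. Cells: Hek293T transiently carrying a TEAD-responsive luciferase reporter; EC50 derived.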
row,EC50 [nM],SMILES
1,< 1000,"CNS(=O)(=O)CCNc1ccc(-c2ccc(Cl)cc2)cc1-c1ccn(Cc2cccnc2)n1 [compound 106, 2-((4′-chloro-3-(1-(pyridin-3-ylmethyl)-1H-pyrazol-3-yl)-[1,1′-biphenyl]-4-yl)amino)-N-methylethane-1-sulfonamide]"
2,1000 to 20000,"CNS(=O)(=O)CCNc1ccc(-c2cnn(C)c2)cc1-c1ccn(Cc2cccnc2)n1 [compound 108, N-methyl-2-((4-(1-methyl-1H-pyrazol-4-yl)-2-(1-(pyridin-3-ylmethyl)-1H-pyrazol-3-yl)phenyl)amino)ethane-1-sulfonamide]"
3,< 1000,"CNS(=O)(=O)CCNc1ccc(-c2ccc(C(F)(F)F)cc2)cc1-c1ccn(CCO)n1 [compound 112, 2-((3-(1-(2-hydroxyethyl)-1H-pyrazol-3-yl)-4′-(trifluoromethyl)-[1,1′-biphenyl]-4-yl)amino)-N-methylethane-1-sulfonamide]"
4,< 1000,"CNS(=O)(=O)CCNc1ccc(-c2ccccc2)cc1-c1ccn(Cc2cccc(C(N)=O)c2)n1 [compound 113, 3-((3-(4-((2-(N-methylsulfamoyl)ethyl)amino)-[1,1′-biphenyl]-3-yl)-1H-pyrazol-1-yl)methyl)benzamide]"
5,< 1000,CNS(=O)(=O)CCNc1ccc(-c2cccc(C(F)(F)F)c2)cc1-c1ccn(C)n1 [compound 120]
6,< 1000,"CNS(=O)(=O)CCNc1ccc(-c2cccc(Cl)c2)cc1-c1ccn(C)n1 [compound 122, 2-((3′-chloro-3-(1-methyl-1H-pyrazol-3-yl)-[1,1′-biphenyl]-4-yl)amino)-N-methylethane-1-sulfonamide]"
7,< 1000,"CNS(=O)(=O)CCNc1ccc(-c2cc(F)ccc2F)cc1-c1ccn(C)n1 [compound 123, 2-((2′,5′-difluoro-3-(1-methyl-1H-pyrazol-3-yl)-[1,1′-biphenyl]-4-yl)amino)-N-methylethane-1-sulfonamide]"
8,< 1000,"CNS(=O)(=O)CCNc1ccc(-c2cccc(F)c2F)cc1-c1ccn(C)n1 [compound 125, 2-((2′,3′-difluoro-3-(1-methyl-1H-pyrazol-3-yl)-[1,1′-biphenyl]-4-yl)amino)-N-methylethane-1-sulfonamide]"
9,< 1000,"CNS(=O)(=O)CCNc1ccc(-c2cc(F)cc(F)c2)cc1-c1ccn(C)n1 [compound 126, 2-((3′,5′-difluoro-3-(1-methyl-1H-pyrazol-3-yl)-[1,1′-biphenyl]-4-yl)amino)-N-methylethane-1-sulfonamide]"
10,< 1000,"CNS(=O)(=O)CCNc1ccc(-c2ccc(C(F)(F)F)c(F)c2)cc1-c1ccn(C)n1 [compound 127, 2-((3′-fluoro-3-(1-methyl-1H-pyrazol-3-yl)-4′-(trifluoromethyl)-[1,1′-biphenyl]-4-yl)amino)-N-methylethane-1-sulfonamide]"
11,< 1000,"CNS(=O)(=O)CCNc1ccc(-c2cc(F)cc(C(F)(F)F)c2)cc1-c1ccn(C)n1 [compound 128, 2-((3′-fluoro-3-(1-methyl-1H-pyrazol-3-yl)-5′-(trifluoromethyl)-[1,1′-biphenyl]-4-yl)amino)-N-methylethane-1-sulfonamide]"
12,1000 to 20000,"CNS(=O)(=O)CCNc1ccc(-c2cccc(OC(F)(F)F)c2)cc1-c1ccn(C)n1 [compound 129, N-methyl-2-((3-(1-methyl-1H-pyrazol-3-yl)-3′-(trifluoromethoxy)-[1,1′-biphenyl]-4-yl)amino)ethane-1-sulfonamide]"
13,< 1000,"CNS(=O)(=O)CCNc1cnc(-c2ccc(C(F)(F)F)cc2)cc1-c1ccn(C(F)F)n1 [compound 130, 2-((4-(1-(difluoromethyl)-1H-pyrazol-3-yl)-6-(4-(trifluoromethyl)phenyl)pyridin-3-yl)amino)-N-methylethane-1-sulfonamide]"
14,< 1000,"CNS(=O)(=O)CCNc1ccc(-c2ccc(C(F)(F)F)cc2)nc1-c1ccn(C(F)F)n1 [compound 134, 2-((2-(1-(difluoromethyl)-1H-pyrazol-3-yl)-6-(4-(trifluoromethyl)phenyl)pyridin-3-yl)amino)-N-methylethane-1-sulfonamide]"

# More lines, now with the values behind:
row,SMILES,EC50 [nM]
1,"O=S(=O)(O)CCNc1ccc(-c2ccc(Cl)cc2)cc1-c1ccn(Cc2cccnc2)n1 [compound 107, 2-((4′-chloro-3-(1-(pyridin-3-ylmethyl)-1H-pyrazol-3-yl)-[1,1′-biphenyl]-4-yl)amino)ethane-1-sulfonic acid]",> 20000
2,"Cn1ccc(-c2ccc(NCCS(=O)(=O)O)c(-c3ccn(Cc4cccnc4)n3)c2)n1 [compound 109, 2-((4-(1-methyl-1H-pyrazol-3-yl)-2-(1-(pyridin-3-ylmethyl)-1H-pyrazol-3-yl)phenyl)amino)ethane-1-sulfonic acid]",> 20000
3,"COc1ccc(-c2ccc(NCCS(=O)(=O)F)c(-c3ccn(Cc4cccnc4)n3)c2)cc1 [compound 110, 2-((4′-methoxy-3-(1-(pyridin-3-ylmethyl)-1H-pyrazol-3-yl)-[1,1′-biphenyl]-4-yl)amino)ethane-1-sulfonyl fluoride]",1000 to 20000
4,"CNS(=O)(=O)CCNc1ccc(-c2ccc(OC)cc2)cc1-c1ccn(Cc2cccnc2)n1 [compound 111, 2-((4′-methoxy-3-(1-(pyridin-3-ylmethyl)-1H-pyrazol-3-yl)-[1,1′-biphenyl]-4-yl)amino)-N-methylethane-1-sulfonamide]",< 1000
5,"CNS(=O)(=O)CCNc1ccc(-c2ccccn2)cc1-c1ccn(Cc2cccnc2)n1 [compound 114, N-methyl-2-((4-(pyridin-2-yl)-2-(1-(pyridin-3-ylmethyl)-1H-pyrazol-3-yl)phenyl)amino)ethane-1-sulfonamide]",1000 to 20000
6,"CNS(=O)(=O)CCNc1ccc(Cc2ccccc2)cc1-c1ccn(Cc2cccnc2)n1 [compound 115, 2-((4-benzyl-2-(1-(pyridin-3-ylmethyl)-1H-pyrazol-3-yl)phenyl)amino)-N-methylethane-1-sulfonamide]",< 1000
7,"CNS(=O)(=O)CCNc1ccc(Nc2ccccc2)cc1-c1ccn(Cc2cccnc2)n1 [compound 116, N-methyl-2-((4-(phenylamino)-2-(1-(pyridin-3-ylmethyl)-1H-pyrazol-3-yl)phenyl)amino)ethane-1-sulfonamide]",< 1000
8,"CN(C)S(=O)(=O)CCNc1ccc(-c2ccc(F)cc2)nc1-c1ccn(C(F)F)n1 [compound 133, 2-((2-(1-(difluoromethyl)-1H-pyrazol-3-yl)-6-(4-fluorophenyl)pyridin-3-yl)amino)-N,N-dimethylethane-1-sulfonamide]",< 1000
9,"C=CC(=O)NCc1ccc(-c2ccccc2)cc1-c1ccn(Cc2cccnc2)n1 [compound 136, N-((3-(1-(pyridin-3-ylmethyl)-1H-pyrazol-3-yl)-[1,1′-biphenyl]-4-yl)methyl)acrylamide]",< 1000
10,"CCC(=O)NCc1cc(-c2ccccc2)cc(-c2ccn(C)n2)c1 [compound 138, N-((5-(1-methyl-1H-pyrazol-3-yl)-[1,1′-biphenyl]-3-yl)methyl)propionamide]",1000 to 20000
11,"C=CC(=O)NCc1cc(-c2ccccc2)cc(-c2ccn(Cc3cccnc3)n2)c1 [compound 139, N-((5-(1-(pyridin-3-ylmethyl)-1H-pyrazol-3-yl)-[1,1′-biphenyl]-3-yl)methyl)acrylamide]",< 1000
12,"C=CC(=O)NCc1ccc(-c2ccc(C(F)(F)F)cc2F)cc1-c1ccn(C)n1 [compound 146, N-((2′-fluoro-3-(1-methyl-1H-pyrazol-3-yl)-4′-(trifluoromethyl)-[1,1′-biphenyl]-4-yl)methyl)acrylamide]",< 1000
13,"C=CC(=O)NCc1ccc(-c2ccc(C(F)(F)F)cn2)cc1-c1ccn(C)n1 [compound 147, N-(2-(1-methyl-1H-pyrazol-3-yl)-4-(5-(trifluoromethyl)pyridin-2-yl)benzyl)acrylamide]",< 1000
14,"C=CC(=O)NCc1ccc(-c2ccc(C(F)(F)F)nc2)cc1-c1ccn(C)n1 [compound 148, N-(2-(1-methyl-1H-pyrazol-3-yl)-4-(6-(trifluoromethyl)pyridin-3-yl)benzyl)acrylamide]",< 1000
15,"C=CC(=O)NCc1ccc(-c2ccc(F)cc2)cc1-c1ccn(C(C)C)n1 [compound 150, N-((4′-fluoro-3-(1-isopropyl-1H-pyrazol-3-yl)-[1,1′-biphenyl]-4-yl)methyl)acrylamide]",< 1000
16,"C=CC(=O)NCc1ccc(-c2ccc(F)cc2)cc1-c1ccn(CCO)n1 [compound 151, N-((4′-fluoro-3-(1-(2-hydroxyethyl)-1H-pyrazol-3-yl)-[1,1′-biphenyl]-4-yl)methyl)acrylamide]",< 1000
17,"C=CC(=O)NCc1ccc(-c2ccc(F)cc2)cc1-c1ccn(CC(C)C)n1 [compound 152, N-((4′-fluoro-3-(1-isobutyl-1H-pyrazol-3-yl)-[1,1′-biphenyl]-4-yl)methyl)acrylamide]",< 1000
18,"C=CC(=O)NCc1ccc(-c2ccc(F)cc2)cc1-c1ccn(C2COC2)n1 [compound 154, N-((4′-fluoro-3-(1-(oxetan-3-yl)-1H-pyrazol-3-yl)-[1,1′-biphenyl]-4-yl)methyl)acrylamide]",< 1000
19,"C=CC(=O)NCc1ccc(-c2ccc(F)cc2)cc1-c1ccn(CCOC(F)(F)F)n1 [compound 155, N-((4′-fluoro-3-(1-(2-(trifluoromethoxy)ethyl)-1H-pyrazol-3-yl)-[1,1′-biphenyl]-4-yl)methyl)acrylamide]",1000 to 20000
20,"C=CC(=O)NCc1ccc(-c2ccc(C(F)(F)F)cc2)cc1-c1ccn(CCOC)n1 [compound 156, N-((3-(1-(2-methoxyethyl)-1H-pyrazol-3-yl)-4′-(trifluoromethyl)-[1,1′-biphenyl]-4-yl)methyl)acrylamide]",< 1000
21,"C=CC(=O)NCc1ccc(-c2ccc(Cl)cc2)cc1-c1ccn(C2CC2)n1 [compound 158, N-((4′-chloro-3-(1-cyclopropyl-1H-pyrazol-3-yl)-[1,1′-biphenyl]-4-yl)methyl)acrylamide]",< 1000
22,"C=CC(=O)NCc1ccc(-c2ccc(F)cc2)cc1-c1ccn(CC2COC2)n1 [compound 159, N-((4′-fluoro-3-(1-(oxetan-3-ylmethyl)-1H-pyrazol-3-yl)-[1,1′-biphenyl]-4-yl)methyl)acrylamide]",< 1000
